Assays:
Assay type in all cases: cell-based
mouse RXFP2 = target: T1, mouse RXFP2 (Mus musculus, UniProt Q91ZZ5); test: Luciferase cAMP assay in HEK-CRE-Luc cells transiently transfected with mouse RXFP2; conditions: 10 μM-[…], compared with human RXFP2 response
T1 construct: expressed in transfected cells; host or cells: HEK-CRE-Luc (transient, Lipofectamine2000)
Experimental: It was of interest if the RXFP2 agonists of formula (I) activate the mouse RXFP2 receptor. HEK-CRE-Luc cells transiently transfected with mouse RXFP2 were used to test agonist activity by measuring induction of cAMP. For this assay, cells were seeded in 6-well flat-bottom clear plates at 0.6 million cells/well in 2 mL/well of growth medium (DMEM, 10% FBS, 1× Pen/Strep) and allowed to attach overnight at 37° C., 5% CO2. The next morning, cells were transfected with 2 μg of plasmid (human or mouse RXFP2) and 6 μL of Lipofectamine2000 (Invitrogen, Waltham, MA) in a total volume of 200 μl/well OPTI-MEM™ I (Thermo Fisher, Waltham, MA) reduced serum medium and incubated an additional 24 hours. The transfected cells were then harvested and seeded in 96-well flat-bottom opaque plates at 30,000 cells/well in 60 μL/well of serum-free DMEM medium and incubated overnight to attach. The next morning, cells were treated with 1 μL/well of compound (10 μM-1.2 nM), 2 μM forskolin, or DMSO vehicle, and with 4 μL of positive control INSL3 (100-0.01 nM) (Phoenix Pharmaceuticals, Burlingame, CA) or vehicle serum-free DMEM. […] Plates were incubated for 40 minutes at room temperature protected from light, and the signal was read on a CLARIOstar plate reader (BMG Labtech, Germany). […]

RXFP1 = target: T2, RXFP1 (Homo sapiens, UniProt Q9HBX9); test: HTRF cAMP counter-screen in HEK-RXFP1 cells; conditions: compound 10 μM-[…], IBMX 200 μM
T2 construct: expressed in transfected cells
T2 sequence (Q9HBX9 1-757): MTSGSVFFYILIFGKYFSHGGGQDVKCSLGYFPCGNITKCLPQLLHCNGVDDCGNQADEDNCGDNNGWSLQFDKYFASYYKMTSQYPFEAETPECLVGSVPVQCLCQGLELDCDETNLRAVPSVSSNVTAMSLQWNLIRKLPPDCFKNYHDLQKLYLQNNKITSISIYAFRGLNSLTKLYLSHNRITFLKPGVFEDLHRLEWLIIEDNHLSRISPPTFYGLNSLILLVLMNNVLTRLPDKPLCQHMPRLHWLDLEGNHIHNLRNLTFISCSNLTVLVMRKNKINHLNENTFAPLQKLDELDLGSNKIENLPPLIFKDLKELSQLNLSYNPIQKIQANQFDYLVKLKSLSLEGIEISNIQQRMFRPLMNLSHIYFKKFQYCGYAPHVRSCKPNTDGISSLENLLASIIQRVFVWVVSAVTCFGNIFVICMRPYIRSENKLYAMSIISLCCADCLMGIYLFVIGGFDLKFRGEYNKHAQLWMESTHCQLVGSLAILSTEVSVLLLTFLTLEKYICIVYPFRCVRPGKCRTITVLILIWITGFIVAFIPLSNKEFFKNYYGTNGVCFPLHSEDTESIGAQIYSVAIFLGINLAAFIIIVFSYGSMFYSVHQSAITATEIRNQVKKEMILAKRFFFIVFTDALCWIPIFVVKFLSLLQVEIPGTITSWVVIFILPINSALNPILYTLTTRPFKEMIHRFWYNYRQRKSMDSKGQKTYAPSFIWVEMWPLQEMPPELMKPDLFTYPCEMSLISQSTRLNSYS
From the text: HEK293T cells stably transfected with RXFP1 (HEK-RXFP1) were used to test compound specificity towards the RXFP2 receptor using the HTRF Gs dynamic cAMP assay kit (PerkinElmer, Waltham, MA). This is a competitive immunoassay where a time-resolved fluorescence resonance energy (TR-FRET) signal is produced when exogenous d2-labeled cAMP (acceptor) binds to europium cryptate-conjugated anti-cAMP antibody (donor). No signal is produced when endogenous cAMP binds to the antibody. Thus, the TR-FRET signal is inversely proportional to the concentration of cAMP produced by the cells. The HTRF cAMP assay was carried out in the presence of isobutylmethylxanthine phosphodiesterase inhibitor (IBMX) at 200 μM to amplify the cAMP signal. For this assay, cells were seeded in 96-well flat-bottom opaque plates at 30,000 cells/well in 60 μL/well of serum-free DMEM medium and allowed to attach overnight at 37° C., 5% CO2. The next morning, cells were treated with 1 μL/well of compound (10 μM-1.2 nM), 1 μM forskolin, or DMSO vehicle. Cells were also treated with 4 μL of 10 nM Relaxin2 (Peprotech, Cranbury, NJ) as a positive control or vehicle (serum-free DMEM+IBMX). […] Cells were incubated for 1 hour at room temperature, and then the signal was read on a CLARIOstar plate reader (BMG Labtech, Germany). […]

RXFP2 = target: T3, RXFP2 (Homo sapiens, UniProt Q8WXD0); test: Luciferase cAMP assay in HEK-CRE-Luc-RXFP2 cells; conditions: for EC50: 3 h treatment; for Emax (% Eff vs. 10 nM INSL3): relative to 10 nM INSL3 response
T3 construct: expressed in transfected cells
Experimental: A confirmatory cAMP assay was done to eliminate false positives using a HEK293T-CRE-Luc cell line stably transfected with RXFP2 (HEK-CRE-Luc-RXFP2), as this cell line expresses luciferase under the control of the cAMP response element (CRE). Activation of the RXFP2 receptor increases intracellular cAMP levels, inducing luciferase transcription in the nucleus. Thus, luciferase activity in these cells is proportional to cAMP accumulation. For this assay, cells were seeded in 96-well flat-bottom opaque plates at 20,000 cells/well in 60 μL/well of serum-free DMEM medium and allowed to attach overnight at 37° C., 5% CO2. The next morning, cells were treated with 1 μL/well of compound (25 μM-0.21 nM), 1 μM forskolin, or DMSO vehicle. Cells were also treated with 4 μL of INSL3 (100-0.01 nM) (Phoenix Pharmaceuticals, Burlingame, CA) or vehicle serum-free DMEM. Cells were incubated with the treatments for 3 hours at 37° C., 5% CO2, then rested 30 minutes at room temperature for equilibration, after which 65 μL/well of substrate AMPLITE™ Luciferase Reporter Gene Assay Kit (AAT Bioquest, Sunnyvale, CA) was added. Plates were incubated for 40 minutes at room temperature protected from light, and then luciferase output was read on a CLARIOstar plate reader (BMG Labtech, Germany). […]

T3 sequence (Q8WXD0 whole entry): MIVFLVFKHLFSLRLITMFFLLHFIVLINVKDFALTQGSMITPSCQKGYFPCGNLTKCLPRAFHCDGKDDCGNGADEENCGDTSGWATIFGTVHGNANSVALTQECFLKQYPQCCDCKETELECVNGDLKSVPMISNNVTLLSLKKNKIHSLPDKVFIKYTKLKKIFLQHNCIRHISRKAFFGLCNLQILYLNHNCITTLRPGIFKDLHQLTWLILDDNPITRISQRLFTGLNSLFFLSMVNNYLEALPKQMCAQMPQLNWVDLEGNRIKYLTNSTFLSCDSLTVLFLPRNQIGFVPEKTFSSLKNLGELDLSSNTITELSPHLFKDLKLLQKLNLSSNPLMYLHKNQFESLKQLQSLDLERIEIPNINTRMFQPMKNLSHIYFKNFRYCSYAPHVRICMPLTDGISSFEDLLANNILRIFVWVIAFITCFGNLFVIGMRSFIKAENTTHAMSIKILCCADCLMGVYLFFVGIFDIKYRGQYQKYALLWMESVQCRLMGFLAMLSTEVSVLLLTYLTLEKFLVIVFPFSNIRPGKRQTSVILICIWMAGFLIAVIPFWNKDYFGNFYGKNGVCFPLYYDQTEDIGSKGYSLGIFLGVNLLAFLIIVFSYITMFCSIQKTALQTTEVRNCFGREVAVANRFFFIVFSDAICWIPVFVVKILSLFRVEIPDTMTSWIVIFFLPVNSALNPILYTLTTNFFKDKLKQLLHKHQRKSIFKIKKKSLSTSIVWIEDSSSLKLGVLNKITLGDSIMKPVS
T1 sequence (Q91ZZ5 whole entry): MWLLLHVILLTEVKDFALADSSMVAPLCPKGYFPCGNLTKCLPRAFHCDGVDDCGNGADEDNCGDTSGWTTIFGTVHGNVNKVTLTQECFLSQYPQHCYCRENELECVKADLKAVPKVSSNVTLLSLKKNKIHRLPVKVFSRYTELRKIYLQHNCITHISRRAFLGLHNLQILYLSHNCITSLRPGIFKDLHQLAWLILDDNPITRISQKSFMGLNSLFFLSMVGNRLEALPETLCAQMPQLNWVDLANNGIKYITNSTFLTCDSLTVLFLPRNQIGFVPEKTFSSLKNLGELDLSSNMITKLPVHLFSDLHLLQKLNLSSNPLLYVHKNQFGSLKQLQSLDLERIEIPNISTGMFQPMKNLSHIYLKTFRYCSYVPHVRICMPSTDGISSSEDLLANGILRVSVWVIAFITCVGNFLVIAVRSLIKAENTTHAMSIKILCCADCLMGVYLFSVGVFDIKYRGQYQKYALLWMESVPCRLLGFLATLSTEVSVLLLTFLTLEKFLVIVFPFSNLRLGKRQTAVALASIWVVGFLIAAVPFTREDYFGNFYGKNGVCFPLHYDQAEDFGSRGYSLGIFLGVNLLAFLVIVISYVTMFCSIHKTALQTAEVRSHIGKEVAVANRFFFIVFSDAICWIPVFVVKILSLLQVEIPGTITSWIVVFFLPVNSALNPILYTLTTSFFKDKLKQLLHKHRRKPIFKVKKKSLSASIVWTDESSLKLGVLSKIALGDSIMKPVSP

Row | SMILES | mouse RXFP2 activation (cAMP, luciferase) (mouse RXFP2) | RXFP1 cAMP response (activation of RXFP1) (RXFP1) | EC50 (RXFP2; 25 μM-0.21 nM) | RXFP2 agonist activity (RXFP2; luciferase cAMP assay) | Emax (% Eff vs. 10 nM INSL3) (RXFP2) | EC50 (RXFP2; 25 μM-[…])
1 | O=C1Nc2ccc(-c3cc(C(F)(F)F)cc(C(F)(F)F)c3)cc2C(=O)N2CCN(C(=O)COc3ccc(OC(F)(F)F)cc3Br)C[C@@H]12 [Example 158, (S)-8-(3,5-Bis(trifluoromethyl)phenyl)-2-(2-(2-bromo-4-(trifluoromethoxy)phenoxy)acetyl)-1,3,4,12a-tetrahydrobenzo[e]pyrazino[1,2-a][1,4]diazepine-6,12 (2H, 11H)-dione] | activate the mouse RXFP2 receptor at levels comparable to human RXFP2 activation | do not activate | 25.8 nM | potent RXFP2 agonists | 105.5% | 
2 | O=C1Nc2ccc(-c3cccc(C(F)(F)F)c3)cc2C(=O)N2CCN(C(=O)COc3ccc(OC(F)(F)F)cc3Br)C[C@@H]12 [Example 123, (S)-2-(2-(2-bromo-4-(trifluoromethoxy)phenoxy)acetyl)-8-(3-(trifluoromethyl)phenyl)-1,3,4,12a-tetrahydrobenzo[e]pyrazino[1,2-a][1,4]diazepine-6,12 (2H, 11H)-dione] | activate the mouse RXFP2 receptor at levels comparable to human RXFP2 activation | do not activate |  |  | 117.1% | 58.5 nM

— patent publication US20250134907A1, “FUSED DIAZEPINES AS AGONISTS OF THE INSULIN-LIKE 3 (INSL3) PEPTIDE RECEPTOR RXFP2 AND METHODS OF USE THEREOF” (The United States of America,as represented by the …, priority 2022, published 2025)
